According to patent publication US10899755B2, “Benzothiazole compounds and uses thereof” (Incyte Corporation, priority 2018, dated 2021):

Biological target: HPK1 (Homo sapiens, UniProt Q92918)
Experiment: HPK1 Kinase Binding Assay
Settings: active HPK1 (SignalChem M23-11G), tracer 222, LanthaScreen Eu-Anti GST antibody, one hour incubation at 25° C.
Protocol: (§1) A stock solution of 1 mM test compound was prepared in DMSO. The compound plate was prepared by 3-fold and 11-point serial dilutions. 0.1 μL of the compound in DMSO was transferred from the compound plate to the white 384 well polystyrene plates. The assay buffer contained 50 mM HEPES, pH 7.5, 0.01% Tween-20, 5 mM MgCl2, 0.01% BSA, and 5 mM DTT. 5 μL of 4 nM active HPK1 (SignalChem M23-11G) prepared in the buffer was added to the plate. The enzyme concentration given was based on the given stock concentration reported by the vender. […] After one hour incubation at 25° C., the plates were read on a PHERAstar FS plate reader (BMG Labtech). Ki values were determined.

HPK1 (Homo sapiens, UniProt Q92918), sequence (Q92918 whole entry, looked up): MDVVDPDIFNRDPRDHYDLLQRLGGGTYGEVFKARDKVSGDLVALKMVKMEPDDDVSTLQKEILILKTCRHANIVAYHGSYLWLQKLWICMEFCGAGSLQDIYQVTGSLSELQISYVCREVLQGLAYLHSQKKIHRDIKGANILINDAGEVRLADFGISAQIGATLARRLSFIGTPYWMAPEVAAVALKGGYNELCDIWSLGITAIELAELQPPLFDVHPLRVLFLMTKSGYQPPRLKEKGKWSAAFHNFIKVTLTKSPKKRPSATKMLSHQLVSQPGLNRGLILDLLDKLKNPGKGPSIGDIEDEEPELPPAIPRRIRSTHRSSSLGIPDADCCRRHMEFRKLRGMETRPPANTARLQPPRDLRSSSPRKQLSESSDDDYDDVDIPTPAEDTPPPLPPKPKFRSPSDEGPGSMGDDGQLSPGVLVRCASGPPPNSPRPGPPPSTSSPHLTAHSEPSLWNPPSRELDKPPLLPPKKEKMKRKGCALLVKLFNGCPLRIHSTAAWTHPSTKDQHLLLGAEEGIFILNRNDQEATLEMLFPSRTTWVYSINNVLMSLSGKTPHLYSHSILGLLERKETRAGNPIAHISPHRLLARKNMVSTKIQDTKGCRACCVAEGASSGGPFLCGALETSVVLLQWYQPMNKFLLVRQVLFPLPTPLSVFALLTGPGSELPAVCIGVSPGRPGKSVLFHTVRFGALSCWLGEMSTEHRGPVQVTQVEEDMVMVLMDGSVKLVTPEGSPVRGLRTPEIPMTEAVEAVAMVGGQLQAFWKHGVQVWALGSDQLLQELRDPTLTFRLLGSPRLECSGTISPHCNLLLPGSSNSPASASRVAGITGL

Structure (SMILES)	Ki [µM]
COc1cccc(F)c1-c1nccc(C(=O)Nc2ccc3sc(C)nc3c2N2CCC(c3ccccn3)C2)n1 (centres unmarked) [Example 29, 2-(2-Fluoro-6-methoxyphenyl)-N-(2-methyl-4-(3-(pyridin-2-yl)pyrrolidin-1-yl)benzo[d]thiazol-5-yl)pyrimidine-4-carboxamide]	< 0.1
COc1cccc(F)c1-c1nccc(C(=O)Nc2ccc3sc(C)nc3c2N2C[C@H]3C[C@@H]2CO3)n1 [Example 22, N-(4-((1R,4R)-2-Oxa-5-azabicyclo[2.2.1]heptan-5-yl)-2-methylbenzo[d]thiazol-5-yl)-2-(2-fluoro-6-methoxyphenyl)pyrimidine-4-carboxamide]	< 0.1
COc1cccc(F)c1-c1nccc(C(=O)Nc2ccc3sc(CN(C)C)nc3c2N2C[C@H](N)C[C@H]2CO)n1 [Example 32, N-(4-((2S,4R)-4-amino-2-(hydroxymethyl)pyrrolidin-1-yl)-2-((dimethylamino)methyl)benzo[d]thiazol-5-yl)-2-(2-fluoro-6-methoxyphenyl)pyrimidine-4-carboxamide]	< 0.1
COc1cccc(F)c1-c1nccc(C(=O)Nc2ccc3sc(C)nc3c2N2CCOC[C@@H]2CN)n1 [Example 26, (S)—N-(4-(3-(aminomethyl)morpholino)-2-methylbenzo[d]thiazol-5-yl)-2-(2-fluoro-6-methoxyphenyl)pyrimidine-4-carboxamide]	< 0.1
CCc1nc2c(N3C[C@@H](N)C[C@H]3CO)c(NC(=O)c3ccnc(-c4c(F)cccc4OC)n3)ccc2s1 [Example 12, N-(4-((2S,4S)-4-Amino-2-(hydroxymethyl)pyrrolidin-1-yl)-2-ethylbenzo[d]thiazol-5-yl)-2-(2-fluoro-6-methoxyphenyl)pyrimidine-4-carboxamide]	< 0.1
COc1ccc(F)c(F)c1-c1nccc(C(=O)Nc2ccc3sc(C)nc3c2N2C[C@H](N)C[C@H]2CO)n1 [Example 16, N-(4-((2S,4R)-4-Amino-2-(hydroxymethyl)pyrrolidin-1-yl)-2-methylbenzo[d]thiazol-5-yl)-2-(2,3-difluoro-6-methoxyphenyl)pyrimidine-4-carboxamide]	< 0.1
COc1cccc(F)c1-c1nccc(C(=O)Nc2ccc3sc(C)nc3c2N2C[C@@H](N)C[C@H]2CO)n1 [Example 23, N-(4-((2S,4S)-4-amino-2-(hydroxymethyl)pyrrolidin-1-yl)-2-methylbenzo[d]thiazol-5-yl)-2-(2-fluoro-6-methoxyphenyl)pyrimidine-4-carboxamide]	< 0.1
COc1cccc(C(N)=O)c1-c1nccc(C(=O)Nc2ccc3sc(C)nc3c2N2C[C@H](N)C[C@H]2CO)n1 [Example 14, N-(4-((2S,4R)-4-Amino-2-(hydroxymethyl)pyrrolidin-1-yl)-2-methylbenzo[d]thiazol-5-yl)-2-(2-carbamoyl-6-methoxyphenyl)pyrimidine-4-carboxamide]	0.1 to 0.5
COc1cccc(F)c1-c1nccc(C(=O)Nc2ccc3sc(C(C)C)nc3c2N2C[C@@H](N)C[C@H]2CO)n1 [Example 13, N-(4-((2S,4S)-4-Amino-2-(hydroxymethyl)pyrrolidin-1-yl)-2-isopropylbenzo[d]thiazol-5-yl)-2-(2-fluoro-6-methoxyphenyl)pyrimidine-4-carboxamide]	< 0.1
CNCc1cc(C)c(-c2nccc(C(=O)Nc3ccc4sc(C)nc4c3N3CC[C@@H](N)C3)n2)c(F)c1 [Example 4, (R)—N-(4-(3-Aminopyrrolidin-1-yl)-2-methylbenzo[d]thiazol-5-yl)-2-(2-fluoro-6-methyl-4-((methylamino)methyl)phenyl)pyrimidine-4-carboxamide]	< 0.1

Biological target: HPK1
Experiment: HPK1 Kinase Binding Assay
Settings: active HPK1 (SignalChem M23-11G), tracer 222, LanthaScreen Eu-Anti GST antibody, one hour incubation at 25° C.
Protocol: as §1

Structure (SMILES)	Ki [µM]
Cc1nc2c(N3CC[C@@H](N)C3)c(NC(=O)c3ccnc(-c4c(F)cccc4C(F)(F)F)n3)ccc2s1 [Example 3, (R)—N-(4-(3-Aminopyrrolidin-1-yl)-2-methylbenzo[d]thiazol-5-yl)-2-(2-fluoro-6-(trifluoromethyl)phenyl)pyrimidine-4-carboxamide]	< 0.1
